According to PMC7090077, “Developing a highly efficient hydroxytyrosol whole-cell catalyst by de-bottlenecking rate-limiting steps” (Nature Communications, 2020):

Experiments:
VanR [1] = target: T1, VanR (Corynebacterium glutamicum, UniProt Q8NN31); test: isothermal titration calorimetry; format: binding
T1 construct: gene Cgl2382; full length; GST fusion from pGEX-6p-1 in E. coli BL21(DE3), GST tag cleaved with PreScission protease; homodimer, ligand pocket at subunit interface

VanR [2] = target: T2, VanR (Corynebacterium glutamicum, UniProt Q8NN31, R148L/Y103L/Y168M); test: RFP reporter induction in E. coli BW25113 with plasmid pVanR; format: cell-based
T2 construct: gene Cgl2382; full length; GST fusion from pGEX-6p-1 in E. coli BL21(DE3), GST tag cleaved with PreScission protease; homodimer, ligand pocket at subunit interface
T2 sequence (Q8NN31 entry or part of it Y103L/R148L/Y168M): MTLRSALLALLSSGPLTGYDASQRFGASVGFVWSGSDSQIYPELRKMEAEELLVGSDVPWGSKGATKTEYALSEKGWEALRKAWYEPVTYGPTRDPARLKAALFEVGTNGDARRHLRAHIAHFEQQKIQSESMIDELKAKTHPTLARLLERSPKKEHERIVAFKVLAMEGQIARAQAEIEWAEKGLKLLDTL

HpaBC = target: T3, HpaBC (Escherichia coli, UniProt Q57160); test: specific activity, product formation by HPLC; format: biochemical; conditions: wild-type
T3 construct: gene hpaB; HpaB and HpaC purified on Ni-NTA; two-component flavin-dependent monooxygenase; with 4-hydroxyphenylacetate 3-monooxygenase reductase component
T3 sequence (Q57160 1-520): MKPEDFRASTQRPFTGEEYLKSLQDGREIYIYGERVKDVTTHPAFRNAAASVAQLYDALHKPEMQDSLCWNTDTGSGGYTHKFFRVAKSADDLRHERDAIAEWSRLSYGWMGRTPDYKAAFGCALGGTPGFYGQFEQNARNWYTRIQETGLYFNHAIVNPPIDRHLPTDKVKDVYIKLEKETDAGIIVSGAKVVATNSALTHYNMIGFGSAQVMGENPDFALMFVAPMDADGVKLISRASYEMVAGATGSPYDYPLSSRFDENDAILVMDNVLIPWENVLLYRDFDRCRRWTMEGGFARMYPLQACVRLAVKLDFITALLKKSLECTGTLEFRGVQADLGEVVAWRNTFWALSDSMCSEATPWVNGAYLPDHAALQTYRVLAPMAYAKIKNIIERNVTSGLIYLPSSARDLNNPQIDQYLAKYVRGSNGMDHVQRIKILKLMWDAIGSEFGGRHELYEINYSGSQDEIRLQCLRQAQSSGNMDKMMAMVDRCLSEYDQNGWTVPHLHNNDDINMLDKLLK

T1 sequence (Q8NN31 entry or part of it): as the sequence (Q8NN31 entry or part of it Y103L/R148L/Y168M) above, with L103Y, L148R, M168Y counted along it

**Q.** How did the Kd (VanR [1]) turn out when COc1cc(C(=O)O)ccc1O [vanillic acid] was run?
**A.** 6.99 µM

**Q.** How did the EC50 (VanR [2]) turn out when OCCc1ccc(O)c(O)c1 [hydroxytyrosol] was run?
**A.** ~500 µM

**Q.** With O=C(O)Cc1ccc(O)cc1 [4-hydroxyphenylacetate] as the compound, how does the specific activity (HpaBC) read?
**A.** the hydroxylation activity of these HpaBC mutants on the original substrate 4-HPA reduced considerably
